The results in this text go back to paper PMC8047011, “Enantiomers of 2-methylglutamate and 2-methylglutamine selectively impact mouse brain metabolism and behavior” (Scientific Reports, 2021).

One series deals with T1, GluN2A (Homo sapiens, UniProt Q12879).
T1 construct: host or cells: HEK 293
Description: FLIPR functional receptor assay, GluN2A. Format: cell-based. The protocol:
(§1) Receptor functional & binding assays
(§2) Functional assays of all GABAA, NMDA (GluN2A–GluN2D) and AMPA (GluA2) receptor subunits were performed by SB Drug Discovery as a part of their CNS discovery panel using FLIPR technology. Briefly, receptor-expressing HEK 293 cell lines were incubated in a red membrane potential dye in HEPES:HBSS pH 7.4 buffer and the fluorescence (λex: 488, λex: 510–570) was monitored over time as the test compounds and/or reference compounds were added to the solution. In agonist assay, only test compounds were added. In positive allosteric modulator assay, cells were preincubated with test compounds and then low concentration (approximately EC20) of an appropriate agonist was added. In antagonist assay, cells were preincubated with test compounds and then high concentration (approximately EC80) of an appropriate agonist was added. For GABAA assays, GABA was used as the agonist, picrotoxin was used as the reference antagonist and allopregnanolone was used as the reference positive allosteric modulator (PAM). For NMDA assays, a mixture of glutamate, glycine and CaCl2 was used as the agonist, MK801 was the reference antagonist and pregnenolone sulfate or GNE 9278 were used as reference PAMs. […] All compounds were tested at 7 concentration points in triplicate and EC50/IC50 was determined where applicable. […]

A further series has as its system kainate nonspecific. Description: Nonspecific kainate binding assay. The conditions noted are these: 100 μM, triplicate; rat. The procedure: (§3) Nonspecific AMPA, kainate and NMDA binding assays were performed by Eurofins Discovery
(§4) (Cerep) using rat cerebral cortex membranes and radiolabeled [3H]AMPA, [3H]kainic acid and
(§5) [3H]CGP 39653, respectively. […]

The next series deals with AMPA nonspecific. Description: Nonspecific AMPA binding assay. The conditions noted are these: 100 μM, triplicate; rat. The protocol: as §3, §4, §5
The next series deals with T2, GABAB (B1b/B2) (Homo sapiens, UniProt Q9UBS5).
T2 construct: purchased SB Drug Discovery (CNS discovery panel, FLIPR); Eurofins Discovery (Cerep)
Description: GABAB (B1b/B2) binding assay. As to conditions: triplicate, read-out: % of radioligand binding inhibition, GABAB (B1b/B2). The protocol: (§6) mGluR1, mGluR2, mGluR5 and GABAB binding assays were performed by Eurofins Discovery. […]
(§7) mGluR5 and GABAB binding assays were performed using recombinant CHO-K1 cells and
(§8) [3H]CGP-54626 and [3H]quisqalic acid, respectively. All compounds were tested at a single
(§9) concentration of 100 uM in triplicate. […]

In the next series the target is T3, GABAA α3β3γ2 (Homo sapiens, UniProt P28472+P34903).
T3 construct: host or cells: HEK 293
Description: FLIPR functional receptor assay, GABAA α3β3γ2. The format is cell-based. The conditions noted are these: top test concentration 1 mM; for EC50: agonist mode. The protocol:
as §1
Functional assays of all GABAA, NMDA (GluN2A–GluN2D) and AMPA (GluA2) receptor subunits were performed by SB Drug Discovery as a part of their CNS discovery panel using FLIPR technology. Briefly, receptor-expressing HEK 293 cell lines were incubated in a red membrane potential dye in HEPES:HBSS pH 7.4 buffer and the fluorescence (λex: 488, λex: 510–570) was monitored over time as the test compounds and/or reference compounds were added to the solution. In agonist assay, only test compounds were added. In positive allosteric modulator assay, cells were preincubated with test compounds and then low concentration (approximately EC20) of an appropriate agonist was added. In antagonist assay, cells were preincubated with test compounds and then high concentration (approximately EC80) of an appropriate agonist was added. For GABAA assays, GABA was used as the agonist, picrotoxin was used as the reference antagonist and allopregnanolone was used as the reference positive allosteric modulator (PAM). For NMDA assays, a mixture of glutamate, glycine and CaCl2 was used as the agonist, MK801 was the reference antagonist and pregnenolone sulfate or GNE 9278 were used as reference PAMs. For AMPA assays, glutamate was used as the agonist, CNQX was the reference antagonist and cyclothiazide was used as the reference PAM. All compounds were tested at 7 concentration points in triplicate and EC50/IC50 was determined where applicable. […]

Series [1] has as its system primary murine cerebral astrocytes. Description: Astrocyte transport and metabolism of 2MeGlu. Format: cell-based, mouse. The conditions noted are these: 1 mM substrate, 2 h, 37 °C. The protocol: Primary astrocytes from C57Bl/6 mouse brain were cultured in complete astrocyte growth medium at 37 °C at 5% CO2 on 96 well plates. Cells were exposed to 1 mM compound in 100 μL medium for 2 h at 37 °C. Supernatants were collected, centrifuged at 2500g for 10 min at 4 °C. 10 μL aliquots were diluted with 190 μL 60% ACN containing 10 μM Glu-d5 and Gln-d5. Cells were quickly washed with 250 μL cold PBS twice and suspended in 200 μL of 60% ACN containing 10 μM Glu-d5 and Gln-d5. All samples were shaken at 1000 rpm for 5 min and then stored at – 80 °C.

The target of series [2] is human glutamine synthetase (Homo sapiens, UniProt P15104). Description: Catalysis of 2MeGlu C5-amidation by human glutamine synthetase. Format: biochemical. The conditions noted are these: 10 mM substrate, 5 ng/mL enzyme, ATP, NH4Cl. The procedure: The procedure was adapted from an existing protocol. To a reaction mixture in a 1.5 mL microcentrifuge tube containing 10 mM substrate, 10 mM ATP, 20 mM MgCl2, 40 mM NH4Cl, 25 mM 2-mercaptoethanol in 100 mM imidazole–HCl buffer pH 7.0, recombinant human glutamine synthetase (final concentration: 5 ng/mL) was added. The tubes were incubated in a preheated thermomixer at 37 °C and shaken at 600 rpm (30 s on, 30 s off). 5 μL aliquots were collected in triplicate every 5 min and immediately diluted with 195 μL of cold 60% ACN containing 10 μM Glu-d5 and Gln-d5 as internal standards in a 96 well plate. After collecting all samples, 200 μL of ACN was added to all wells and the plate was shaken at 1000 rpm for 5 min at room temperature, and then stored at − 80 °C until analysis.

The target of another series is T4, mGluR1 (Rattus norvegicus, UniProt P23385).
T4 construct: purchased SB Drug Discovery (CNS discovery panel, FLIPR); Eurofins Discovery (Cerep)
Description: mGluR1 radioligand binding assay. As to conditions: triplicate. The procedure:
as §6, §8, §9

A further series concerns the target T5, GABAA α4β2γ2 (Homo sapiens, UniProt P47870+P48169).
T5 construct: host or cells: HEK 293
Description: FLIPR functional receptor assay, GABAA α4β2γ2. The format is cell-based. As to conditions: agonist mode; top test concentration 1 mM. The procedure: intensity and lower number of tone and shock (2x) pairings to create a greater opportunity to observe pharmacologic activity.
as §1
as §2, with “(PAM).” for “(PAM). For NMDA assays, a mixture of glutamate, glycine and CaCl2 was used as the agonist, MK801 was the reference antagonist and pregnenolone sulfate or GNE 9278 were used as reference PAMs.”

In a further series the test system is NMDA nonspecific. Description: Nonspecific NMDA binding assay. As to conditions: 100 μM, triplicate; rat. The protocol: as §3, §4, §5
For the next series, the target named is T6, GABAB (B1/B2) (Homo sapiens, UniProt Q9UBS5).
T6 construct: purchased SB Drug Discovery (CNS discovery panel, FLIPR); Eurofins Discovery (Cerep)
Description: GABAB binding assay (B1/B2; nonsel). As to conditions: triplicate, rat, read-out: % of radioligand binding inhibition, GABAB nonsel. The procedure: as §6, §7, §8, §9

T3 sequence (P34903 29-492): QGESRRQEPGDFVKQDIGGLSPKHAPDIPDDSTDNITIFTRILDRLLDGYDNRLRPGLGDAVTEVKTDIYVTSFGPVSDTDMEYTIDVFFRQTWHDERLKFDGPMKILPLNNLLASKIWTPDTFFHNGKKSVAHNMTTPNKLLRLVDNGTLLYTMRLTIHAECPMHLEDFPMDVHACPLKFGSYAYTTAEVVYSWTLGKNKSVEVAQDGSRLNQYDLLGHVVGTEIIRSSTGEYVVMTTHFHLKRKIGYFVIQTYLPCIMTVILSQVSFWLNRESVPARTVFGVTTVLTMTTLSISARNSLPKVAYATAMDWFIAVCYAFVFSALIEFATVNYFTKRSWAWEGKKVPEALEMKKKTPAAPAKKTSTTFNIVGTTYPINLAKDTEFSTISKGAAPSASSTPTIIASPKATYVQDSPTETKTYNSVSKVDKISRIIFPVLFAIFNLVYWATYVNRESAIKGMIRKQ
T3 sequence (P28472 26-473): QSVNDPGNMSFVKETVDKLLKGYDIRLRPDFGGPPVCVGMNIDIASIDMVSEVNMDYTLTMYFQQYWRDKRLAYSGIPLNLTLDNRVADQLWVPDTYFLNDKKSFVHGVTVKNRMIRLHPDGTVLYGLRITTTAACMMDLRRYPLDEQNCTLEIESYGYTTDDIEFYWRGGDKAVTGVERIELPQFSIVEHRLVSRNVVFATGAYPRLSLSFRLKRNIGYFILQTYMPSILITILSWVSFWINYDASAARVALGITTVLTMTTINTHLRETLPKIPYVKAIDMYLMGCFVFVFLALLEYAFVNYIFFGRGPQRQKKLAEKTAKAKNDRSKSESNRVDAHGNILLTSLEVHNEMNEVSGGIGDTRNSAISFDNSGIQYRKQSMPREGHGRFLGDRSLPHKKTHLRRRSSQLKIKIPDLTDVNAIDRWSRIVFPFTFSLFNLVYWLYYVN
T3 sequence (P18507 40-475 partner): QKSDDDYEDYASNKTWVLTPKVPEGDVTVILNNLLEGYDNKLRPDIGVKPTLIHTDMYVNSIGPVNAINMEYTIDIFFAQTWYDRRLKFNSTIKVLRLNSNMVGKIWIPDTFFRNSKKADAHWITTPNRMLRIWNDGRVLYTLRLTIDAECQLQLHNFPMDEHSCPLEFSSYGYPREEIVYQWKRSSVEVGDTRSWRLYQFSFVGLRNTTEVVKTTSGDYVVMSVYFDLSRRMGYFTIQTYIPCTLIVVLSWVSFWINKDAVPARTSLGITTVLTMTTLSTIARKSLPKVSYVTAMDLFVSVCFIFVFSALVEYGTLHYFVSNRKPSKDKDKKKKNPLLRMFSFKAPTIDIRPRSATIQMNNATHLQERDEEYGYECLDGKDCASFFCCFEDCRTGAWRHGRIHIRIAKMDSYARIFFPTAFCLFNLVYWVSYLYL
T4 sequence (P23385 19-1199): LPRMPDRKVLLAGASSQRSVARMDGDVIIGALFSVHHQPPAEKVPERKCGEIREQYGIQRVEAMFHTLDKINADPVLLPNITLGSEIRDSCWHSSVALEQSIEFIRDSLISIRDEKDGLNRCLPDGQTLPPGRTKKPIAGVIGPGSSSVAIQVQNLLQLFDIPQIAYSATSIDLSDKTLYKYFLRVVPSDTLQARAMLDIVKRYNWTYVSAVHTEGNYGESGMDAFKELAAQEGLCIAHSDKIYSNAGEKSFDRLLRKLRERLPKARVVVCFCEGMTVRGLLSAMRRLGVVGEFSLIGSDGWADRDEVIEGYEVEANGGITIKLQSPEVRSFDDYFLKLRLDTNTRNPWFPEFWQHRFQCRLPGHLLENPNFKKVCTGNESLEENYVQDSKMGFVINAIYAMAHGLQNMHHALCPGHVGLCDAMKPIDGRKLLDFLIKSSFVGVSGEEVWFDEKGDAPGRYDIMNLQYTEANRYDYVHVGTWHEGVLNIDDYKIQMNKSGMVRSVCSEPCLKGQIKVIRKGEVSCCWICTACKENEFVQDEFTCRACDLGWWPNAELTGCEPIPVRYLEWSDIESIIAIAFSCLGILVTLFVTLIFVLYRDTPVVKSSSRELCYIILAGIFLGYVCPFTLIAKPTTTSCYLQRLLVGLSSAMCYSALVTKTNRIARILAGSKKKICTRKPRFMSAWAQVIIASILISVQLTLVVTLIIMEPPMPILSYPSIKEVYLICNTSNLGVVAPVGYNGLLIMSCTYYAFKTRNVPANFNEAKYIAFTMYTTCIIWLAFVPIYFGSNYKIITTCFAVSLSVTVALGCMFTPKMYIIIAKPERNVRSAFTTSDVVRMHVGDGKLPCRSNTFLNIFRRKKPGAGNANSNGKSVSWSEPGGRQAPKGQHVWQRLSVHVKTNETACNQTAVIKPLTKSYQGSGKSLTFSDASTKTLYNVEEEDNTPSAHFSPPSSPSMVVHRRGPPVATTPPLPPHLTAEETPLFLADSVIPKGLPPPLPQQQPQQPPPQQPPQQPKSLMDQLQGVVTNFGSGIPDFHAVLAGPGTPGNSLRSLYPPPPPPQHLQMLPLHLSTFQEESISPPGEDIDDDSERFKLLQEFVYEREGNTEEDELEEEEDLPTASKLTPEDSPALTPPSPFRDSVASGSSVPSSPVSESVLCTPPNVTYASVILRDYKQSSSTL
T6 sequence (Q9UBS5 20-961): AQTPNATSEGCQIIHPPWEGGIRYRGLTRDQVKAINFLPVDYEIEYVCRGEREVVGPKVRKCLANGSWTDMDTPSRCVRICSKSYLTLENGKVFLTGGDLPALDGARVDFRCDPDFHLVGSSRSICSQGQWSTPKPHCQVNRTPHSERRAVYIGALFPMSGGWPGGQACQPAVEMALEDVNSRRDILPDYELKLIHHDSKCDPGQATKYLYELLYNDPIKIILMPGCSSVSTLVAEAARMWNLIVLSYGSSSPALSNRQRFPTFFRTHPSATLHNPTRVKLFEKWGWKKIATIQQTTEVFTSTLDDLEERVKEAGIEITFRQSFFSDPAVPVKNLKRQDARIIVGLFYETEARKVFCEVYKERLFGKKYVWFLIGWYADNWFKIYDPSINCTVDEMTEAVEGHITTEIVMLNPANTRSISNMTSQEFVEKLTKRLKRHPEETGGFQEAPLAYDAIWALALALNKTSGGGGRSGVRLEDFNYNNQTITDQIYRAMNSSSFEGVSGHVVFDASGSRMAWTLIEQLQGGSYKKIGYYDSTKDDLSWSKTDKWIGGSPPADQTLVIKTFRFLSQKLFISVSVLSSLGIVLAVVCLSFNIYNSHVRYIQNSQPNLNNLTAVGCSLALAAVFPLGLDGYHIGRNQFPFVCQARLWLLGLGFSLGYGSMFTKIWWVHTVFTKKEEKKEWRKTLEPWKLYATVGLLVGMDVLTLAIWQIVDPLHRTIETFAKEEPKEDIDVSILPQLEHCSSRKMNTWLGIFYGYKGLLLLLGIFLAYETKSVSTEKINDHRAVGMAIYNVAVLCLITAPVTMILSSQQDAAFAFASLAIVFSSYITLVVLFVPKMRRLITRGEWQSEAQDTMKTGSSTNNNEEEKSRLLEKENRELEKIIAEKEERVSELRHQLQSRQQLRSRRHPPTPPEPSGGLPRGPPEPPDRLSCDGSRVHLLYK
T6 sequence (O75899 42-941 partner): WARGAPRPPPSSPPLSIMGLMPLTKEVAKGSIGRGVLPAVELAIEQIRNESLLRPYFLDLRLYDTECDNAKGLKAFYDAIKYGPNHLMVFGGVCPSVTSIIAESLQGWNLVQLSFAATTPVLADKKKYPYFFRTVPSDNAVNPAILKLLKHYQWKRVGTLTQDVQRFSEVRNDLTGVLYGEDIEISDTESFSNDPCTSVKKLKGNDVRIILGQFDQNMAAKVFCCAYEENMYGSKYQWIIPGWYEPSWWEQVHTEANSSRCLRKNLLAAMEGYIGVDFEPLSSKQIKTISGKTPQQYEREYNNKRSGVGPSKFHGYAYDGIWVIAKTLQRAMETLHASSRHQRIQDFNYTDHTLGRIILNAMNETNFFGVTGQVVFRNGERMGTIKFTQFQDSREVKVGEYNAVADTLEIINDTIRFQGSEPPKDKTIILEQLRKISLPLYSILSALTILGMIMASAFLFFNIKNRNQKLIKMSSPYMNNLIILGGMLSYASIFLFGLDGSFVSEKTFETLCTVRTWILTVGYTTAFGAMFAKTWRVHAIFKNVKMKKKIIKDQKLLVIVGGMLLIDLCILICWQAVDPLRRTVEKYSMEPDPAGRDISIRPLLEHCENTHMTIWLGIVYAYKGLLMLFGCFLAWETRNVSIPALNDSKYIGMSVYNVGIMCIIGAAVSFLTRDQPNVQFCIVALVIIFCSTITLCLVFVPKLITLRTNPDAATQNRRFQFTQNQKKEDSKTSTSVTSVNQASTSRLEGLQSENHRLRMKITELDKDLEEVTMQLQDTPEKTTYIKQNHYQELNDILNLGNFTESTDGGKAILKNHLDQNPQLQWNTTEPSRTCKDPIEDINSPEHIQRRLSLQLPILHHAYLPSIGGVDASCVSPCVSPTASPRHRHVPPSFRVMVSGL
Chain of human glutamine synthetase (P15104 whole entry): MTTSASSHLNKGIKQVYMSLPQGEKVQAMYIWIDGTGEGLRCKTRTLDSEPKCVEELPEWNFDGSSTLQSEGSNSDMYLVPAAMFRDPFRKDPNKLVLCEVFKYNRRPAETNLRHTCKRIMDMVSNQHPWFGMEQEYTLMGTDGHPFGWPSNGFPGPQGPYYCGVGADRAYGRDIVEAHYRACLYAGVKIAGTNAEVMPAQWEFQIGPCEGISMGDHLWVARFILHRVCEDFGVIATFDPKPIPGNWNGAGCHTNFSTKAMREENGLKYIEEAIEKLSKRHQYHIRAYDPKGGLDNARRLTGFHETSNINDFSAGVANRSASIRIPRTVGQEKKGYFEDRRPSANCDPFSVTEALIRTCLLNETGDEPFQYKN

Consider `C[C@@](N)(CCC(=O)O)C(=O)O` [(R)-2MeGlu, (R)-2-methylglutamic acid], for which the “Activity against GluN2A (in words)” value on GluN2A is recorded as “weak antagonist behavior”. For the same molecule, on GluN2A (antagonist mode, top test concentration 100 μM), half-maximal inhibition (IC50) was put at 69 µM. Also, in the series with kainate nonspecific, the “% of radioligand binding inhibition, kainate nonspec” value was found to be 18%. In addition, in the series on AMPA nonspecific, the “% of radioligand binding inhibition, AMPA nonspec” value is recorded as 15%. The results for the inhibition at 100 µM on GABAB (B1b/B2), at mGluR1 and on GABAB (B1/B2) were 13%, -3% and 5%, respectively. Further, the figures for the EC50 on GABAA α3β3γ2 and at GABAA α4β2γ2 were 959 µM and above 1 mM, respectively. For the same molecule, in series [1], the “Astrocyte uptake and conversion to 2MeGln” value was “not detected within astrocytes in significant amounts, and no conversion to 2MeGln was detected”. The “Substrate for glutamine synthetase (GS)” value in [2] is “not a substrate for GS”. Besides, in the series with NMDA nonspecific, the “% of radioligand binding inhibition, NMDA nonspec” value is 8%.
In the case of `C[C@](N)(CCC(=O)O)C(=O)O` [(S)-2MeGlu, (S)-2-methylglutamic acid], in the series on kainate nonspecific, the “% of radioligand binding inhibition, kainate nonspec” value stood at 20%. Further, the “% of radioligand binding inhibition, AMPA nonspec” value in the series on AMPA nonspecific worked out at 12%. In addition, the results for the inhibition at 100 µM on GABAB (B1b/B2), at mGluR1 and at GABAB (B1/B2) were 14%, 6% and 5%, respectively. The figures for the EC50 on GABAA α3β3γ2 and at GABAA α4β2γ2 were 725 µM and above 1 mM, respectively. In addition, 978 µM corresponded to half-maximal inhibition against GABAA α3β3γ2 (antagonist mode) (IC50). The “Astrocyte uptake and conversion to 2MeGln” value in [1] was “transported into astrocytes and then converted into 2MeGln”. Further, the “Substrate for glutamine synthetase (GS)” value in [2] was “is a substrate for GS”. In the series on NMDA nonspecific, the “% of radioligand binding inhibition, NMDA nonspec” value is 3%.

As a reminder, the IC50 is the concentration that gives 50% inhibition. A high value points to lower potency. The term EC50 denotes the concentration at which the effect is half-maximal.
